For orientation: EC50 means the concentration that produces a half-maximal response.

This test deals with T1, ΔF508-CFTR (Homo sapiens, UniProt P13569, DEL508-508).
T1 construct: expressed in transfected cells
As to the kind of experiment: Membrane potential optical (FRET/VIPR) assay, identification of potentiator compounds. It counts as cell-based. The conditions noted are these: Table 3, assay not given; for % Activity: relative efficacy. In short, it runs like this: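 NIH3T3 mouse fibroblasts stably expressing ΔF508-CFTR, temperature-corrected 24 h at 27° C., read on VIPR by FRET between CC2-DMPE and DiSBAC2(3). Potentiators identified in a double-addition format, first adding chloride-free (gluconate) medium with or without compound.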

Where only a bound is given, the exact number is not on record here.

T1 sequence (P13569 with tags, fused parts or gaps DEL508-508): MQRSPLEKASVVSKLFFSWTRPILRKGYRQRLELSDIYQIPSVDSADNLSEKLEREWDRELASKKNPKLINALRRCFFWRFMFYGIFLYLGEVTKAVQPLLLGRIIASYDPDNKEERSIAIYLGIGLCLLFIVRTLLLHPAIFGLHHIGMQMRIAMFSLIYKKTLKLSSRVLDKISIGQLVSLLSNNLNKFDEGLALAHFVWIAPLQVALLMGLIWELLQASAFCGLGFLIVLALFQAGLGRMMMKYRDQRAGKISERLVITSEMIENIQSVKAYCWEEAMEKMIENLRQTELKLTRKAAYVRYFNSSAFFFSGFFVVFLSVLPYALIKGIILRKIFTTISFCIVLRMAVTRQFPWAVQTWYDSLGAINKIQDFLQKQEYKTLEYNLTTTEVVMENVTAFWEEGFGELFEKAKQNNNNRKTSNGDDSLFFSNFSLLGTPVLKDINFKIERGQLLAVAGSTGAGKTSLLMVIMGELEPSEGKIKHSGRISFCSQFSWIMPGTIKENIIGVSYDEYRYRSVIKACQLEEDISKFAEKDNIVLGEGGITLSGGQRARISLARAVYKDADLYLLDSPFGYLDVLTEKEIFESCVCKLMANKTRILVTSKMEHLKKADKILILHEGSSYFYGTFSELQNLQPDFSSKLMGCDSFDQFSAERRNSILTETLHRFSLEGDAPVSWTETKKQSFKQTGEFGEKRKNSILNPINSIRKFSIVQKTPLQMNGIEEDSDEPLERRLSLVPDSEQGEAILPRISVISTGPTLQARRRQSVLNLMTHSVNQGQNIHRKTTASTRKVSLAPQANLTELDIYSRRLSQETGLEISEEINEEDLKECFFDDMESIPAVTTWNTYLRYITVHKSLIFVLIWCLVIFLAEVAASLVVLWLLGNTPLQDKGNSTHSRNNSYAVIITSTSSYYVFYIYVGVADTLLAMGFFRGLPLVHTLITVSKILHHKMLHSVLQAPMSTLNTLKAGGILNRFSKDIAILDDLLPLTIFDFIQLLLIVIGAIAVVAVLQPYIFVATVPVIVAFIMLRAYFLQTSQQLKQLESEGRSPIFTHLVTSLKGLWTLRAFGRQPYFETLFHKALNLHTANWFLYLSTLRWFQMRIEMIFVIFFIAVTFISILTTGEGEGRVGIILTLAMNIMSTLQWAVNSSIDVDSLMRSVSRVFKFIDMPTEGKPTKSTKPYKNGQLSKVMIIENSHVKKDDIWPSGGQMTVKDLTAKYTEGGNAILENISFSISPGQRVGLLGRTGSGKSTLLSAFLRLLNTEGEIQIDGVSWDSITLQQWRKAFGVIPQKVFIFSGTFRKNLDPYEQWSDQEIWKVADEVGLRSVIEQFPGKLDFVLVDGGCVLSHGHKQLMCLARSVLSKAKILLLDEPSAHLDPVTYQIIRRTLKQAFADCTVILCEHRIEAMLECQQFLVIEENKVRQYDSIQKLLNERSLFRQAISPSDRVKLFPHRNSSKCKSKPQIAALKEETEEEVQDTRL

`CC(=O)Nc1cccc(NC(=O)c2c[nH]c3ccccc3c2=O)c1` [Compound 419, N-(3-acetylaminophenyl)-4-oxo-1H-quinoline-3-carboxamide]: the EC50 was in the range of 25 to 60 µM and the “% Activity” value is “+ (<25%)”.
For `CCOC(=O)C(C)(C)c1ccc(NC(=O)c2c[nH]c3ccccc3c2=O)cc1` [Compound 420, 2-methyl-2-[4-[(4-oxo-1H-quinolin-3-yl)carbonylamino]phenyl]-propanoic acid ethyl ester], the EC50 is < 10 µM and the “% Activity” value is “++ (between 25% to 100%)”.
For `COc1cc(NC(=O)c2c[nH]c3ccccc3c2=O)c(C(F)(F)F)cc1C(C)(C)C` [Compound 421, N-[5-methoxy-4-tert-butyl-2-(trifluoromethyl)phenyl]-4-oxo-1H-quinoline-3-carboxamide], the EC50 is < 10 µM and the “% Activity” value was “++ (between 25% to 100%)”.
Turning to `CCOCCc1c[nH]c2cc(NC(=O)c3c[nH]c4ccccc4c3=O)ccc12` [Compound 423, N-[3-(2-ethoxyethyl)-1H-indol-6-yl]-4-oxo-1H-quinoline-3-carboxamide], the 50% effective concentration (EC50) is < 10 µM and the “% Activity” value is given as “++ (between 25% to 100%)”.
Consider `O=C(Nc1ccccc1-c1ccc(Cl)cc1)c1c[nH]c2ccccc2c1=O` [Compound 424, N-[2-(4-chlorophenyl)phenyl]-4-oxo-1H-quinoline-3-carboxamide], for which the concentration giving a half-maximal response (EC50) was < 10 µM and the “% Activity” value is reported as “++ (between 25% to 100%)”.
With `CC(C)c1ccc(NC(=O)c2c[nH]c3ccccc3c2=O)cc1` [Compound 425, N-(4-isopropylphenyl)-4-oxo-1H-quinoline-3-carboxamide], the “% Activity” value is “++ (between 25% to 100%)”.
For the compound `CC(C)(C)c1cc(Cl)c(O)cc1NC(=O)c1c[nH]c2ccccc2c1=O` [Compound 426, N-(4-chloro-5-hydroxy-2-tert-butyl-phenyl)-4-oxo-1H-quinoline-3-carboxamide], the EC50 is < 10 µM and the “% Activity” value is recorded as “++ (between 25% to 100%)”.
For `CC(C)(C)OC(=O)N1CCc2c(cccc2NC(=O)c2c[nH]c3ccccc3c2=O)C1` [Compound 427, 5-[(4-oxo-1H-quinolin-3-yl)carbonylamino]-1,2,3,4-tetrahydroisoquinoline-2-carboxylic acid tert-butyl ester], the EC50 was < 10 µM and the “% Activity” value is “++ (between 25% to 100%)”.
On to `CC(C)(C)c1ccc(NC(=O)c2c[nH]c3ccccc3c2=O)cc1O` [Compound 428, N-(3-hydroxy-4-tert-butyl-phenyl)-4-oxo-1H-quinoline-3-carboxamide], for which the EC50 is < 10 µM and the “% Activity” value was “++ (between 25% to 100%)”.
On to `Nc1cc(NC(=O)c2c[nH]c3ccccc3c2=O)cc(C(F)(F)F)c1` [Compound 429, N-[3-amino-5-(trifluoromethyl)phenyl]-4-oxo-1H-quinoline-3-carboxamide], for which the EC50 was < 10 µM and the “% Activity” value is “++ (between 25% to 100%)”.
As for `Cc1cccc(C(C)C)c1NC(=O)c1c[nH]c2ccccc2c1=O` [Compound 430, N-(2-isopropyl-6-methyl-phenyl)-4-oxo-1H-quinoline-3-carboxamide], the EC50 is < 10 µM and the “% Activity” value is “++ (between 25% to 100%)”.
The like results for `Nc1cccc(NC(=O)c2c[nH]c3ccccc3c2=O)c1` [Compound 431, N-(3-aminophenyl)-4-oxo-1H-quinoline-3-carboxamide] were, in that order, 10 to 25 µM and “++ (between 25% to 100%)”.
The like results for `CC(C)c1ccc(-c2ccccc2NC(=O)c2c[nH]c3ccccc3c2=O)cc1` [Compound 432, N-[2-(4-isopropylphenyl)phenyl]-4-oxo-1H-quinoline-3-carboxamide] were, in that order, < 10 µM and “++ (between 25% to 100%)”.
As for `CC(C)(C)c1cc(C(C)(C)C)c(NC(=O)c2c[nH]c3ccccc3c2=O)cc1O` [Compound 433, N-(5-hydroxy-2,4-ditert-butyl-phenyl)-4-oxo-1H-quinoline-3-carboxamide], the EC50 was < 10 µM.
In the case of `Cc1ccc(C)c(NC(=O)c2c[nH]c3ccccc3c2=O)c1` [Compound 434, N-(2,5-dimethylphenyl)-4-oxo-1H-quinoline-3-carboxamide], the EC50 was < 10 µM and the “% Activity” value is recorded as “++ (between 25% to 100%)”.
The like results for `O=C(Nc1cccnc1Oc1ccccc1F)c1c[nH]c2ccccc2c1=O` [Compound 435, N-[2-(2-fluorophenoxy)-3-pyridyl]-4-oxo-1H-quinoline-3-carboxamide] were, in that order, < 10 µM and “++ (between 25% to 100%)”.
Consider `COc1ccc(-c2ccccc2NC(=O)c2c[nH]c3ccccc3c2=O)cc1OC` [Compound 436, N-[2-(3,4-dimethoxyphenyl)phenyl]-4-oxo-1H-quinoline-3-carboxamide], for which the EC50 is < 10 µM and the “% Activity” value is listed as “++ (between 25% to 100%)”.
The like results for `O=C(Nc1ccc2c(c1)OCO2)c1c[nH]c2ccccc2c1=O` [Compound 437, N-benzo[1,3]dioxol-5-yl-4-oxo-1H-quinoline-3-carboxamide] were, in that order, 25 to 60 µM and “+ (<25%)”.
For `CC(C)(C)c1cc(C(C)(C)C)c(C(F)F)cc1NC(=O)c1c[nH]c2ccccc2c1=O` [Compound 438, N-[5-(difluoromethyl)-2,4-ditert-butyl-phenyl]-4-oxo-1H-quinoline-3-carboxamide] the same measures were < 10 µM and “++ (between 25% to 100%)”.
Take `COc1ccc(NC(=O)c2c[nH]c3ccccc3c2=O)cc1` [Compound 439, N-(4-methoxyphenyl)-4-oxo-1H-quinoline-3-carboxamide]: the EC50 was < 10 µM and the “% Activity” value was “++ (between 25% to 100%)”.
For `O=C(Nc1ccc2c(c1)OC(F)(F)C(F)(F)O2)c1c[nH]c2ccccc2c1=O` [Compound 440, N-(2,2,3,3-tetrafluoro-2,3-dihydrobenzo[b][1,4]dioxin-6-yl)-1,4-dihydro-4-oxoquinoline-3-carboxamide], the EC50 was < 10 µM and the “% Activity” value is recorded as “++ (between 25% to 100%)”.
Take `CS(=O)(=O)Nc1cc(NC(=O)c2c[nH]c3ccccc3c2=O)cc(C(F)(F)F)c1` [Compound 441, N-[3-methylsulfonylamino-5-(trifluoromethyl)phenyl]-4-oxo-1H-quinoline-3-carboxamide]: the “% Activity” value is recorded as “++ (between 25% to 100%)”.
Regarding `O=C(Nc1cccc(S(=O)(=O)N2CCCCC2)c1)c1c[nH]c2ccccc2c1=O` [Compound 442, 4-oxo-N-[3-(1-piperidylsulfonyl)phenyl]-1H-quinoline-3-carboxamide], the EC50 lay in the range of 25 to 60 µM and the “% Activity” value was “+ (<25%)”.
In the case of `O=C(Nc1ccc2nccnc2c1)c1c[nH]c2ccccc2c1=O` [Compound 443, 4-oxo-N-quinoxalin-6-yl-1H-quinoline-3-carboxamide], the EC50 was in the range of 25 to 60 µM and the “% Activity” value was “+ (<25%)”.
For `COC(=O)c1cc(NC(=O)c2c[nH]c3ccccc3c2=O)ccc1C(C)(C)C` [Compound 444, 5-[(4-oxo-1H-quinolin-3-yl)carbonylamino]-2-tert-butyl-benzoic acid methyl ester], the 50% effective concentration (EC50) was < 10 µM and the “% Activity” value was “++ (between 25% to 100%)”.
